In paper PMC4966941 (PLoS ONE, 2016):
Structures can show the parent of a compound that is named as a salt.

How the values were obtained:
[1] = test system: Staphylococcus aureus Xen 36; assay: In-vivo infection prevention study: X-ray and micro-CT signs of tibial osteomyelitis
Description: Bioluminescent strain Staphylococcus aureus Xen 36 (Caliper LifeSciences, Alameda, CA) was used to develop bone infection. The strain was stored in a glycerol (20% v/v) and Brain Heart Infusion (BHI) suspension at -80°C until required. Bacteria were subcultured onto an LB plate (Luria-Bertani, Miller broth mixed with 1.2% (w/v) Technical Agar (Difco, Sparks, MD.)), at 37°C overnight. Five colonies were then transferred to 3 mL LB broth and grown in shaker incubator (200 rpm), at 37°C for 2.5 h. Two milliliters of the bacterial suspension was transferred to 100 mL LB broth and grown for a further 4 h, until the cells reached exponential growth. Bacterial suspension was transferred into 50 mL centrifuge tubes and cells centrifuged at ~3,000 rpm for 30 min. Supernatants were discarded and pellets were re-suspended in 15 mL Phosphate Buffered Saline (PBS). Cells were then mixed by vortexing and the centrifugation process was repeated. This cell washing process was repeated three times. The final washed and pelleted cells were re-suspended in a total of 10 mL PBS, and mixed by vortexing. The cell suspension was then ten-fold serially diluted. The concentration of the cell suspension was then determined using the spread plate technique and spreading 100 μL of the various dilutions onto LB plates, in duplicate. Plates were incubated at 37°C overnight before counting colony forming units (CFU). […]

[2] = test system: human corneal endothelial cells; design: method as in Yoeruek et al. [40]; conditions: ref Yoeruek et al. [40]; cited from earlier work
[3] = test system: osteosarcoma cell line MG-63; design: method as in Edin et al. [38]; conditions: MG-63 in vitro; ref Edin et al. [38]; cited from earlier work
[4] = patient with normal renal function, intravenous infusion; ref [11], [21]; cited from earlier work
[5] = test system: chondrocyte (N1511) cells; design: method as in Antoci et al. [39]; conditions: ref Antoci et al. [39]; cited from earlier work
[6] = In-vivo pharmacokinetic study: vancomycin in tibia, muscle and plasma after intramedullary delivery (HPLC); conditions: rat; for Mean vancomycin concentration in gastrocnemius muscle (ug drug/g tissue, AVE) / Mean vancomycin concentration in tibia (ug drug/g tissue, AVE): single 25 mg/Kg intramedullary dose to tibia, mean of n = 4; for Vancomycin in muscle, ug drug/g tissue / Vancomycin in plasma: single rat
[7] = test system: osteoblast (MC3T3-E1) cells; design: method as in Antoci et al. [39]; conditions: ref Antoci et al. [39]; cited from earlier work
[8] = single 25 mg/Kg intramedullary dose, 4 h, HPLC, sample 1-1
[9] = single 25 mg/Kg intramedullary dose, 4 h, HPLC, sample 1-3
[10] = single 25 mg/Kg intramedullary dose, 4 h, HPLC, sample 1-4
[11] = single 25 mg/Kg intramedullary dose, 6 h, HPLC, sample 2-1
[12] = single 25 mg/Kg intramedullary dose, 6 h, HPLC, sample 2-2
[13] = single 25 mg/Kg intramedullary dose, 6 h, HPLC, sample 2-3
[14] = single 25 mg/Kg intramedullary dose, 6 h, HPLC, sample 2-4
[15] = single 25 mg/Kg intramedullary dose, 12 h, HPLC, sample 3-1
[16] = single 25 mg/Kg intramedullary dose, 12 h, HPLC, sample 3-2
[17] = single 25 mg/Kg intramedullary dose, 12 h, HPLC, sample 3-3
[18] = single 25 mg/Kg intramedullary dose, 12 h, HPLC, sample 3-4
[19] = single 25 mg/Kg intramedullary dose, 24 h, HPLC, sample 4-1
[20] = single 25 mg/Kg intramedullary dose, 24 h, HPLC, sample 4-2
[21] = single 25 mg/Kg intramedullary dose, 24 h, HPLC, sample 4-3
[22] = single 25 mg/Kg intramedullary dose, 24 h, HPLC, sample 4-4
[23] = single 25 mg/Kg intramedullary dose, 48 h, HPLC, sample 5-1
[24] = single 25 mg/Kg intramedullary dose, 48 h, HPLC, sample 5-2
[25] = single 25 mg/Kg intramedullary dose, 48 h, HPLC, sample 5-4
[26] = single 25 mg/Kg intramedullary dose, 72 h, HPLC, sample 6-2
[27] = single 25 mg/Kg intramedullary dose, 72 h, HPLC, sample 6-3
[28] = single 25 mg/Kg intramedullary dose, 72 h, HPLC, sample 6-4
[29] = single 25 mg/Kg intramedullary dose, 96 h, HPLC, sample 7-1
[30] = single 25 mg/Kg intramedullary dose, 96 h, HPLC, sample 7-2
[31] = single 25 mg/Kg intramedullary dose, 96 h, HPLC, sample 7-3
[32] = single 25 mg/Kg intramedullary dose, 96 h, HPLC, sample 7-4
[33] = single 25 mg/Kg intramedullary dose, HPLC

For `CN[C@H](CC(C)C)C(=O)N[C@H]1C(=O)N[C@@H](CC(N)=O)C(=O)N[C@H]2C(=O)N[C@H]3C(=O)N[C@H](C(=O)N[C@H](C(=O)O)c4cc(O)cc(O)c4-c4cc3ccc4O)[C@H](O)c3ccc(c(Cl)c3)Oc3cc2cc(c3O[C@@H]2O[C@H](CO)[C@@H](O)[C@H](O)[C@H]2O[C@H]2C[C@](C)(N)[C@H](O)[C@H](C)O2)Oc2ccc(cc2Cl)[C@H]1O` [vancomycin, vancomycin hydrochloride], the “Vancomycin treated rats displaying radiographic signs of osteomyelitis” value ([1]; rat tibia inoculated with S. aureus Xen 36 (Log10 5.5 CFU/5 μL) with simultaneous single 25 mg/Kg intramedullary dose, 14 days, n = 9) is listed as “zero”, the “Micro CT evaluation of treated rats” value ([1]; rat tibia inoculated with S. aureus Xen 36, single 25 mg/Kg intramedullary dose, compared to untreated controls) is listed as “absent of any signs of osteomyelitis” and the “Vancomycin concentrations leading to near total destruction” value [2] is listed as “over 10 mg/mL”. The “Vancomycin concentrations leading to significant reductions in viability” value [2] was “higher than 5 mg/mL”, the “Vancomycin concentration that caused cell death” value [3] was 10 mg/mL and the Elimination half-life [4] was “approximately 6 hours”. For the same compound, the “Doses that severely decreased cellular proliferation” value [5] was “greater than 2 mg/mL”, the “Therapeutic or supra-therapeutic bone concentrations of vancomycin” value ([6]; local delivery to the medullary canal) was > 100 µg/mL and the “Time the infused drug stays in the bone” value ([6]; single 25 mg/Kg intramedullary dose) was “at least 96 hours”. The “Mean vancomycin concentration in gastrocnemius muscle (ug drug/g tissue, AVE)” value ([6]; 4 h, HPLC) was 167.793 µg/g, the “Mean vancomycin concentration in tibia (ug drug/g tissue, AVE)” value (“Mean vancomycin concentration in tibia” for short) ([6]; 4 h, HPLC) was 818.068 µg/g and the “Mean vancomycin concentration in gastrocnemius muscle (ug drug/g tissue, AVE)” value ([6]; 6 h, HPLC) was 90.1696 µg/g. The “Mean vancomycin concentration in tibia” value ([6]; 6 h, HPLC) was 784.095 µg/g, the “Mean vancomycin concentration in gastrocnemius muscle (ug drug/g tissue, AVE)” value ([6]; 12 h, HPLC) was 29.0616 µg/g and the “Mean vancomycin concentration in tibia” value ([6]; 12 h, HPLC) was 359.143 µg/g. The “Mean vancomycin concentration in gastrocnemius muscle (ug drug/g tissue, AVE)” value ([6]; 24 h, HPLC) was 0 µg/g, the “Mean vancomycin concentration in gastrocnemius muscle (ug drug/g tissue, AVE)” value ([6]; 48 h, HPLC) was 0.99 µg/g and the “Mean vancomycin concentration in tibia” value ([6]; 48 h, HPLC) was 515.375 µg/g. The “Mean vancomycin concentration in gastrocnemius muscle (ug drug/g tissue, AVE)” value ([6]; 72 h, HPLC) was 0.6895 µg/g, the “Mean vancomycin concentration in tibia” value ([6]; 72 h, HPLC) was 130.325 µg/g and the “Mean vancomycin concentration in gastrocnemius muscle (ug drug/g tissue, AVE)” value ([6]; 96 h, HPLC) was 1.205 µg/g. The “Mean vancomycin concentration in tibia” value ([6]; 96 h, HPLC) was 110.095 µg/g, the “Vancomycin in muscle, ug drug/g tissue” value [6, 8] was 0 ug drug/g tissue and the “Vancomycin in plasma” value [6, 8] was 2.855 µg/mL. For the same compound, the “Vancomycin in muscle, ug drug/g tissue” value ([6]; single 25 mg/Kg intramedullary dose, 4 h, HPLC, sample 1-2) was 0 ug drug/g tissue, the “Vancomycin in muscle, ug drug/g tissue” value [6, 9] was 0 ug drug/g tissue and the “Vancomycin in plasma” value [6, 9] was 2.69 µg/mL. For the same compound, the “Vancomycin in muscle, ug drug/g tissue” value [6, 10] was 671.173 ug drug/g tissue, the “Vancomycin in plasma” value [6, 10] was 8.576 µg/mL and the “Vancomycin in muscle, ug drug/g tissue” value [6, 11] was 0 ug drug/g tissue. For the same compound, the “Vancomycin in plasma” value [6, 11] was 0.1311 µg/mL, the “Vancomycin in muscle, ug drug/g tissue” value [6, 12] was 359.037 ug drug/g tissue and the “Vancomycin in plasma” value [6, 12] was 3.7319 µg/mL. The “Vancomycin in muscle, ug drug/g tissue” value [6, 13] was 0 ug drug/g tissue, the “Vancomycin in plasma” value [6, 13] was -0.165 µg/mL and the “Vancomycin in muscle, ug drug/g tissue” value [6, 14] was 1.642 ug drug/g tissue. The “Vancomycin in plasma” value [6, 14] was 0.01263 µg/mL, the “Vancomycin in muscle, ug drug/g tissue” value [6, 15] was 0 ug drug/g tissue and the “Vancomycin in plasma” value [6, 15] was -0.165 µg/mL. For the same compound, the “Vancomycin in muscle, ug drug/g tissue” value [6, 16] was 114.004 ug drug/g tissue, the “Vancomycin in plasma” value [6, 16] was 0.9602 µg/mL and the “Vancomycin in muscle, ug drug/g tissue” value [6, 17] was 2.243 ug drug/g tissue. For the same compound, the “Vancomycin in plasma” value [6, 17] was 1.434 µg/mL, the “Vancomycin in muscle, ug drug/g tissue” value [6, 18] was 0 ug drug/g tissue and the “Vancomycin in plasma” value [6, 18] was 0.747 µg/mL. For the same compound, the “Vancomycin in muscle, ug drug/g tissue” value [6, 19] was 0 ug drug/g tissue, the “Vancomycin in plasma” value [6, 19] was 0.2258 µg/mL and the “Vancomycin in muscle, ug drug/g tissue” value [6, 20] was 0 ug drug/g tissue. The “Vancomycin in plasma” value [6, 20] was 0.9365 µg/mL, the “Vancomycin in muscle, ug drug/g tissue” value [6, 21] was 0 ug drug/g tissue and the “Vancomycin in plasma” value [6, 21] was 0.3917 µg/mL. The “Vancomycin in muscle, ug drug/g tissue” value [6, 22] was 0 ug drug/g tissue, the “Vancomycin in plasma” value [6, 22] was 0.6404 µg/mL and the “Vancomycin in muscle, ug drug/g tissue” value [6, 23] was 0 ug drug/g tissue. The “Vancomycin in plasma” value [6, 23] was 0.8299 µg/mL, the “Vancomycin in muscle, ug drug/g tissue” value [6, 24] was 0 ug drug/g tissue and the “Vancomycin in plasma” value [6, 24] was 0.7352 µg/mL. For the same compound, the “Vancomycin in muscle, ug drug/g tissue” value ([6]; single 25 mg/Kg intramedullary dose, 48 h, HPLC, sample 5-3) was 0 ug drug/g tissue, the “Vancomycin in muscle, ug drug/g tissue” value [6, 25] was 3.96 ug drug/g tissue and the “Vancomycin in plasma” value [6, 25] was 0.593 µg/mL. For the same compound, the “Vancomycin in muscle, ug drug/g tissue” value ([6]; single 25 mg/Kg intramedullary dose, 72 h, HPLC, sample 6-1) was 0 ug drug/g tissue, the “Vancomycin in muscle, ug drug/g tissue” value [6, 26] was 0 ug drug/g tissue and the “Vancomycin in plasma” value [6, 26] was -0.03475 µg/mL. For the same compound, the “Vancomycin in muscle, ug drug/g tissue” value [6, 27] was 2.758 ug drug/g tissue, the “Vancomycin in plasma” value [6, 27] was 0.04816 µg/mL and the “Vancomycin in muscle, ug drug/g tissue” value [6, 28] was 0 ug drug/g tissue. For the same compound, the “Vancomycin in plasma” value [6, 28] was 0.2495 µg/mL, the “Vancomycin in muscle, ug drug/g tissue” value [6, 29] was 0 ug drug/g tissue and the “Vancomycin in plasma” value [6, 29] was -0.165 µg/mL. The “Vancomycin in muscle, ug drug/g tissue” value [6, 30] was 0 ug drug/g tissue, the “Vancomycin in plasma” value [6, 30] was -0.165 µg/mL and the “Vancomycin in muscle, ug drug/g tissue” value [6, 31] was 4.819 ug drug/g tissue. For the same compound, the “Vancomycin in plasma” value [6, 31] was -0.165 µg/mL, the “Vancomycin in muscle, ug drug/g tissue” value [6, 32] was 0 ug drug/g tissue and the “Vancomycin in plasma” value [6, 32] was -0.165 µg/mL. For the same compound, the “Vancomycin concentration in the gastrocnemius muscle, first 4h post administration” value [6, 33] was > 100 µg/g, the “Vancomycin level in the gastrocnemius muscle by 24h” value [6, 33] was “near undetectable levels” and the “Vancomycin concentration detected in the tibia over the 96-h study period” value ([6]; single 25 mg/Kg intramedullary dose, HPLC of pulverized tissue) was > 100 µg/g. The “Vancomycin detected in the blood plasma for the entirety of the study” value ([6]; single 25 mg/Kg intramedullary dose, HPLC, 96 h study) was “Little to no vancomycin was detected”, the “Time a supratherapeutic antimicrobial dose (>100 μg/mL) was maintained in the surrounding muscle” value ([6]; single 25 mg/Kg intramedullary dose, n = 4 per time point) was < 6 h and the “Doses that severely decreased cellular proliferation” value [7] was “greater than 2 mg/mL”.
